Structures are written as SMILES. Calls of active or inactive are those of the source.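 The calls were made as follows: active = curve reaches 40% activation over neutral controls at an AC40 no higher than the top valid tested concentration; inconclusive = no clear call, values can overlap the other calls; inactive = signal moving opposite to the expected increase, and the rest.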

The subject of the assay is INS-1E GLuc insulin secretion reporter, luminescence, 2-3 h. The experiment in a line: activators of glucose-dependent insulin secretion, dose response, cell-based, INS-1E, Gaussia luciferase, luminescence, cherry-pick, set 2 (AID 977607).
In the case of `CCOC(=O)c1c(NC(=O)Cn2nc(C(F)(F)F)cc2C)sc(C)c1C`, the AC40 was 9.34 µM.

On to `OC(c1ccccc1)(c1ccccc1)C1CCN(CCCOc2ccc(-c3ccsc3)cc2)CC1`, for which the AC40 is 8.81 µM.

In the case of `CCc1nc(N)nc2c1C(=O)CC(C)(C)C2`, the AC40 is > 35 µM (inactive).

`Cc1[nH]c2ccc(OC(F)(F)F)cc2c1CCNCc1ccc(Cl)cc1`: the AC40 is 6.14 µM.

Take `O=C(CCn1ccc2cc(S(=O)(=O)N3CCCC3)ccc21)NCc1cccc(F)c1`: the AC40 was 9.56 µM.

On to `CCCNC(=O)Cn1sc2nc(C)cc(C)c2c1=O`, for which the AC40 was 6.91 µM.

Take `O=c1c2ccccc2sn1-c1ccccc1`: the AC40 is 3.25 µM.

On to `CCOc1ncccc1C(=O)Nc1ccc(S(=O)(=O)Nc2nccs2)cc1`, for which the AC40 was 3.21 µM.

Take `COc1cc(CNCCc2ccccc2)cc(Cl)c1OCc1ccccc1`: the AC40 is 9.79 µM.

As to `COc1cccc(-c2ccc(C3[C@@H]4CN(Cc5cccc(F)c5)C[C@H]3N4)cc2)c1` (some centres undefined), the AC40 was 4.47 µM.

On to `OC(CNCCC1C=Nc2ccccc21)Cn1c2ccc(Cl)cc2c2cc(Cl)ccc21` (centres undefined), for which the AC40 was 4.84 µM.

In the case of `COc1ccc(OC)c(NC(=O)c2cc3c(Cl)nc4ccccc4c3s2)c1`, the AC40 is 10.2 µM.

`C/C=C/c1ccc(C2[C@H]3CNC[C@@H]2N3Cc2cc(-c3ccccc3)on2)cc1` (some centres undefined): the AC40 is 9.74 µM.

`N#Cc1c(-c2ccncc2)cc(-c2ccc(F)cc2)nc1N`: the AC40 was 2.96 µM.

As to `CCC(=O)Nc1ccc(Cl)c(NC(=S)NC(=O)COc2ccc(Cl)cc2)c1`, the AC40 is 7.71 µM.

Regarding `COc1ccc(C2=NN(c3ccc(C(=O)O)cc3)C(c3ccc(OC)c(OC)c3)C2)cc1` (centres undefined), the AC40 was 4.29 µM.

Regarding `COc1ccc2c(c1)C(=NNC(=O)c1ccccn1)c1cc(OC)ccc1-2`, the AC40 was 3.1 µM.

As for `Clc1ccc(-c2ccnc(Oc3ccc4ccccc4c3)n2)cc1`, the AC40 was 8.45 µM.

As for `CCN=C1NC(c2ccc(C(F)(F)F)cc2)C(C(=O)OC)=C(C)N1Cc1cccc(C(F)(F)F)c1` (centres undefined), the AC40 is 14.3 µM.

Take `CN(C)CCNC(=O)c1cccc(-c2cc(NC=O)c3ncc(-c4cccc(C(F)(F)F)c4)n3c2)c1`: the AC40 is 24.4 µM.

For `C=C[C@@]1(C)CC(=O)[C@]2(O)[C@@]3(C)[C@@H](O)CCC(C)(C)[C@@H]3[C@H](O)[C@H](OC(C)=O)[C@@]2(C)O1`, the AC40 was 0.0336 µM.

As for `Cc1cc(C)cc(NC(=O)Cc2ccc(-n3cccc3)cc2)c1`, the AC40 is 8.29 µM.

As to `O=C(O)c1ccc(-n2nnnc2SCc2ccccc2F)cc1`, the AC40 was 0.0781 µM.

As for `CCOc1ncccc1C(=O)Nc1ccccc1F`, the AC40 was > 35 µM (inactive).

On to `COc1cccc(-c2sc3ccccc3c2-c2ccc(OCCN(C)C)cc2)c1`, for which the AC40 is 3.37 µM.

On to `CC(=NC(C)c1ccccc1)c1c(O)[nH]c(=O)[nH]c1=O` (centres undefined), for which the AC40 is 15 µM.

As to `Cc1ccccc1-n1sc2cc(F)ccc2c1=O`, the AC40 was 1.56 µM.

`Cc1ccc2nc(-c3ccc(NC(=O)COC(=O)c4ccco4)cc3)sc2c1`: the AC40 is 4.42 µM.

As to `CCOC(=O)c1nc(SC)n(C)c1C(=O)OCC`, the AC40 is 4.49 µM.

For the compound `COc1ccc(C2=NN(C(=O)c3ccco3)C(c3cccs3)C2)cc1OC` (centres undefined), the AC40 is 1.94 µM.

In the case of `CC(C)Nc1nc(Cl)nc(NC(C)C)n1`, the AC40 was 11.6 µM.

Regarding `CCOC(=O)c1oc2ccccc2c1NC(=O)c1cccs1`, the AC40 was 14 µM.

Take `COc1ccc(CNCC(O)COc2ccc(C(C)(C)c3ccccc3)cc2)cc1` (centres undefined): the AC40 was 6.55 µM.

`COc1cc(CN2CCc3ccccc3C2)ccc1O`: the AC40 was 6.75 µM.

`CCCc1nc2ccccc2c(=O)n1CC(=O)c1ccc(OC)cc1`: the AC40 was 16.4 µM.

For `COc1ccc(CCN(C)C(=O)COc2cccc(-n3cnnn3)c2)cc1OC`, the AC40 was > 35 µM (inactive).

With `CCn1nc(C)c(NC(=O)c2cnn3c(C(F)F)cc(-c4ccccc4)nc23)c1C`, the AC40 was 3.84 µM.

Regarding `CC1CC1C(=O)Nc1cc(C(F)(F)F)ccc1N1CCOCC1` (centres undefined), the AC40 was 1.46 µM.

For `CCOCCCNC(=O)c1oc2ccc3c(c2c1C)C(O)CC(C)(C)O3` (centres undefined), the AC40 was 5.92 µM.

As for `O=C(COc1ccccc1)Nc1sc2c(c1C(=O)NCc1cccnc1)CCCC2`, the AC40 is 13.1 µM.

On to `Cn1c(=O)c2c(nc3n2CCCN3CCc2ccccc2)n(C)c1=O`, for which the AC40 is > 35 µM (inactive).

As for `Cc1ccc(CN(C(=O)c2cccs2)C2CCS(=O)(=O)C2)cc1` (centres undefined), the AC40 was 19.7 µM.

For the compound `NC(=O)COC(=O)c1ccccc1Oc1ccccc1`, the AC40 was 6.24 µM.

Take `Oc1ccccc1-c1cc(C(F)(F)C(F)F)nc(-c2ccccc2)n1`: the AC40 is 7.7 µM.

Turning to `O=C(N/N=C/c1ccc(Cl)cc1Cl)Nc1ccccc1`, the AC40 is 7.74 µM.

With `CCC(=NC(C)c1ccccc1)c1c(O)[nH]c(=O)[nH]c1=O` (centres undefined), the AC40 was 11.1 µM.

In the case of `CC(C)(C)c1ccc(-c2cc(-c3ccccc3O)[nH]n2)cc1`, the AC40 is 6.61 µM.

On to `COc1ccccc1CCn1cnc(-c2ccc(F)cc2)c1CC(C)C`, for which the AC40 is 7.14 µM.

On to `Cc1ccc2oc(-c3cccc(NC(=O)Cc4cccs4)c3)nc2c1`, for which the AC40 is 5.62 µM.

For the compound `COc1cccc(-c2cc(C(=O)Nc3cc(C)on3)no2)c1`, the AC40 was 19.2 µM.

Regarding `COc1ccc(Br)cc1C(=O)Nc1cccc(C)c1`, the AC40 was 11.6 µM.

Consider `CNc1nc(Cl)nc2c1ncn2-c1ccccc1`, for which the AC40 was 15.6 µM.

For `O[C@H]1C[C@H](c2ccccc2)N(CC2CCCCC2)C[C@@H]1n1cc(C2CC2)nn1`, the AC40 is 11.5 µM.

As to `C/C(=N\NC(=O)c1ccc(Cl)c(Cl)c1)c1ccc(Br)s1`, the AC40 is 9.32 µM.

With `N#Cc1nccnc1S(=O)(=O)c1cccs1`, the AC40 is 0.467 µM.

For `COc1ccc(Br)cc1C(=O)Nc1cc(C)cc(C)c1`, the AC40 is 7.63 µM.

As to `COc1ccc(-c2ccc(C3[C@@H]4CN(Cc5cccc(OC)c5)C[C@H]3N4)cc2)cc1` (some centres undefined), the AC40 is 2.47 µM.

As for `O=C(Nc1ccc(C(F)(F)F)cc1)N1C[C@@H]2N[C@H](C1)C2c1ccc(-c2ccccc2)cc1` (some centres undefined), the AC40 is 10.2 µM.

Turning to `C/C=C/c1ccc(C2[C@@H]3CN(C(=O)Nc4ccc(C(F)(F)F)cc4)C[C@H]2N3)cc1` (some centres undefined), the AC40 was 12.5 µM.

Regarding `Clc1ccc(/C=N/NC2=Nc3cccc4cccc2c34)cc1`, the AC40 was 2.13 µM.

Turning to `COc1ccc2nc3ccccc3nc2c1NC(=O)c1ccc(Cl)cc1Cl`, the AC40 was 6.29 µM.

Take `C/C(=N/NC(=O)c1ccc(Br)s1)c1ccncc1`: the AC40 is > 35 µM (inactive).

Take `Cc1cc(C)nc(NS(=O)(=O)c2ccc(N/C=C/C(=O)c3ccc(Cl)c(Cl)c3)cc2)n1`: the AC40 is 3.7 µM.

Regarding `Cc1nn(Cc2ccc(Cl)cc2Cl)c(Cl)c1C(=O)Nc1ccc(OC(F)F)cc1`, the AC40 was 6.5 µM.

On to `O=c1c2ccccc2sn1-c1ccccc1F`, for which the AC40 is 3.87 µM.

Consider `Fc1ccc(-c2cc(C(F)(F)F)nc(-n3cncn3)n2)cc1`, for which the AC40 is 0.52 µM.

On to `CC(C)CCn1c(N2CCCC2)nc2c1c(=O)[nH]c(=O)n2C`, for which the AC40 was 31.7 µM.

For `Cc1ccc(CNc2nc(NCc3ccccc3)nc3ccsc23)c(C)c1`, the AC40 was 19.2 µM.

For `CC(C)(C)C1CCc2c(sc(NC(=O)c3cccs3)c2C(N)=O)C1` (centres undefined), the AC40 was 18.3 µM.

Take `NC(c1csc(NC(=O)Nc2cccc(C(F)(F)F)c2)n1)C1CCCCC1` (centres undefined): the AC40 is 6.13 µM.

For the compound `CS(=O)(=O)N(Cc1ccc(Cl)cc1)c1ccc(C(=O)NCCC2=CCCCC2)cc1`, the AC40 was 13 µM.

With `COc1ccc(Cn2c(=O)c3[nH]cnc3n(-c3ccccc3C)c2=O)cc1`, the AC40 is 10.4 µM.

For the compound `COc1ccccc1C(=O)NC(=S)NC12CC3CC(CC(C3)C1)C2`, the AC40 was 7.9 µM.

Consider `COc1ccccc1CCn1cnc(-c2cccc(F)c2)c1CC(C)C`, for which the AC40 is 11.3 µM.

Take `OC(CNCCc1ccc(C(F)(F)F)cc1)COc1cccc2ccccc12` (centres undefined): the AC40 is 4.54 µM.

With `CC(=O)Nc1c(C(=O)C2CC2)oc2ccccc12`, the AC40 is 6.8 µM.

For the compound `Cc1ccccc1NC(=O)c1ccc(OCc2c(C)noc2C)cc1`, the AC40 was > 35 µM (inactive).

As for `CC1(Cc2cc(Cl)ccc2C(F)(F)F)C(=O)Nc2cc(C(F)(F)F)ccc21` (centres undefined), the AC40 is 34 µM.

For `N/C(=N\OC(=O)COc1ccc(Cl)cc1Cl)c1cccnc1`, the AC40 was 29.8 µM.

On to `COc1ccc(-n2sc3ccccc3c2=O)cc1`, for which the AC40 was 3.14 µM.

As for `COc1cc2c(cc1OC)/C(=C/C(=O)c1ccc(NC(C)=O)cc1)NCC2`, the AC40 is 14.6 µM.

In the case of `CCCCNc1cc(Cl)nc(N)n1`, the AC40 was 7.24 µM.

As for `COC(=O)c1ccc2c(=O)[nH]c(CSc3nc(-c4ccc(F)cc4)cs3)nc2c1`, the AC40 was 5.86 µM.

On to `O=c1c2ccc(F)cc2sn1-c1ccccc1`, for which the AC40 was 4.2 µM.

For `O=C(NCCC1=CCCCC1)C(=O)NCC(c1ccco1)N1CCN(c2ccccc2)CC1` (centres undefined), the AC40 was 6.33 µM.

Take `OC(c1ccccc1)(c1nc(-c2cccc(C(F)(F)F)c2)cs1)C(F)(F)F` (centres undefined): the AC40 is 10.3 µM.

`O=c1[nH]nc(-c2ccccc2)c2ccccc12`: the AC40 is 22.5 µM.

In the case of `CCOC(=O)Nc1cccc(OCC(=O)Nc2ccc3c(c2)CCC3)c1`, the AC40 was 7.83 µM.

Regarding `COc1ccc(-c2nnn(Cc3nc(N)nc(N4CCOCC4)n3)n2)cc1OC`, the AC40 was 1.67 µM.

With `COc1ccc(C(=O)NCC(=O)OCC(=O)Nc2ccc(C)c(S(=O)(=O)N(C)C)c2)cc1OC`, the AC40 was 1.67 µM.

For `CCCCc1c(-c2ccc(F)cc2F)ncn1CCc1ccccc1OC`, the AC40 was 8.96 µM.

Consider `CCOC(=O)c1cnc2ccc(Cl)cc2c1Nc1ccc(S(=O)(=O)Nc2ncccn2)cc1`, for which the AC40 is 3.45 µM.

Consider `COc1ccc2c(c1)CCc1c(C(=O)Nc3cc(C)n(Cc4ccc(Cl)cc4)n3)noc1-2`, for which the AC40 was 6.07 µM.

In the case of `O=c1cc(-c2ccncc2)oc2c1ccc1ccccc12`, the AC40 is 11.6 µM.

`Cc1ccc(-c2ccc(C3[C@@H]4CN(Cc5cccc(F)c5)C[C@H]3N4)cc2)cc1` (some centres undefined): the AC40 was 3.07 µM.

Regarding `O=C(Nc1ccc2c(c1)OCO2)N1C[C@@H]2N[C@H](C1)C2c1ccc(C=Cc2ccccc2)cc1` (some centres undefined), the AC40 was 9.05 µM.

With `OC(c1ccccc1)(c1ccccc1)C1CCN(CCCOc2ccc3c(c2)CCCC3)CC1`, the AC40 was 6.92 µM.

On to `C=CCNc1nc(NCc2ccco2)nc(OCC)n1`, for which the AC40 was > 35 µM (inactive).

For the compound `CCOC(=O)c1csc(-c2ccc(OC)c(OC)c2)n1`, the AC40 was 2.17 µM.

Values taken from PubChem BioAssay AID977607 (Broad Institute, 2014).
